The source of these data is patent publication US11292802B2, “Substituted tetrahydropyrrolo[1,2-a]pyrazines as alpha v integrin inhibitors” (BRISTOL-MYERS SQUIBB COMPANY, priority 2017, dated 2022).

T1 sequence (P06756 31-992 limits assumed): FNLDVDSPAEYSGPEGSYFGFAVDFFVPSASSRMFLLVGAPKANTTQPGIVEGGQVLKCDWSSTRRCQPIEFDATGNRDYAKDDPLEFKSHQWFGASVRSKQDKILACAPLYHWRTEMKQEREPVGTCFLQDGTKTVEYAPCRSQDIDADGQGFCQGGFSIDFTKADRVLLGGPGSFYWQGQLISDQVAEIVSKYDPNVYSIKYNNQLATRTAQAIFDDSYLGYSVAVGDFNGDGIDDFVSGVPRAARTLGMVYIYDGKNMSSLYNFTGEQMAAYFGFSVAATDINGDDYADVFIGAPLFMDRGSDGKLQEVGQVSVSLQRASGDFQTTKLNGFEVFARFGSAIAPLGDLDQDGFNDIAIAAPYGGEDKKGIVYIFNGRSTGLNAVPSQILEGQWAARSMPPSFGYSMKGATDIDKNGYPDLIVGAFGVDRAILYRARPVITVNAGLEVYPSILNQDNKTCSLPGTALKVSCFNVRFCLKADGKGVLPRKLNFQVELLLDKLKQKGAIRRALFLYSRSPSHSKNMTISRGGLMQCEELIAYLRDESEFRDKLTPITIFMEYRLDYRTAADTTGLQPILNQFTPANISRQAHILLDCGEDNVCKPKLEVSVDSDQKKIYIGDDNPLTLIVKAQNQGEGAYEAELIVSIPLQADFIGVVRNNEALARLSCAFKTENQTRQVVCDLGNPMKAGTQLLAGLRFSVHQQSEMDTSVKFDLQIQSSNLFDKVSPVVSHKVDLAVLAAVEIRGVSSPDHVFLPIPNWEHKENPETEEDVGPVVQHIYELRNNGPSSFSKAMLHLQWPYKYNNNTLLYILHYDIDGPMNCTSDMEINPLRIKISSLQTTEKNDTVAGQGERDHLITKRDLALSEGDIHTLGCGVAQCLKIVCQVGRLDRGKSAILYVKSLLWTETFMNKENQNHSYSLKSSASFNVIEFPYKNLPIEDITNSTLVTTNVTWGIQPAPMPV
T1 sequence (P18564 22-707 limits assumed): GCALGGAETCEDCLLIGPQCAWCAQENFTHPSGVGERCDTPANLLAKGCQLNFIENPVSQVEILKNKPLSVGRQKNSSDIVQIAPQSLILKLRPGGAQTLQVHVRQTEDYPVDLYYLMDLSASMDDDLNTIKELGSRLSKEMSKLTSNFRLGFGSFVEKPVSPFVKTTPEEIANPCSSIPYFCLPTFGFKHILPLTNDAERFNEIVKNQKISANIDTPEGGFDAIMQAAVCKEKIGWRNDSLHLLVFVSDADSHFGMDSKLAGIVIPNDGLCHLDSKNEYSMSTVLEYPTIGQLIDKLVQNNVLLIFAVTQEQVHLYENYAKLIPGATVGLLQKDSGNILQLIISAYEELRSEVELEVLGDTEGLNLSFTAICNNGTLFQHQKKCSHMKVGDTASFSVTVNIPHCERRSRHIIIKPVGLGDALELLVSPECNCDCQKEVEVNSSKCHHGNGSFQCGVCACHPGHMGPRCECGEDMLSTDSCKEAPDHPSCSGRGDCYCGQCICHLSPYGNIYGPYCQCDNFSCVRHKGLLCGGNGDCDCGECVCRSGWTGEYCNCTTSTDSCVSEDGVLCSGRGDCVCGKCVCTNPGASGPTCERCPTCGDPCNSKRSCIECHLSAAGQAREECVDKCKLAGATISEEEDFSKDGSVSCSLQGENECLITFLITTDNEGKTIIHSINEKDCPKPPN

The assay concerns the target T1, human αVβ6 (Homo sapiens, UniProt P06756+P18564).
T1 construct: purchased R & D systems 3817-AV
Nature of the assay: human αVβ6 HTRF binding assay. The note with it: biotinylated recombinant human αVβ6 integrin 1.25 nM, FITC-conjugated fibronectin 5 nM. On the procedure:
All binding assays used the HTRF (homogeneous time resolved fluorescence) technology from Cisbio International, therefore all assays are described as HTRF binding assays. The assay results for the Examples are listed in Table 1, exemplified by human αVβ6 (?). The HTRF binding assays are established for the following integrins: human αVβ6, human αVβ1, human αVβ3, human αVβ5, and human αVβ8. All assays used the following assay buffer: 20 mM Tris, pH 7.4, 1 mM MgCl2, 1 mM MnCl2, 0.01% Tween 20, and 0.01% BSA. Alternatively, a SPA-based assay was used for evaluation of receptor binding.
[…]
For orientation: TR-FRET usually uses a lanthanide donor and a delayed reading to cut background.
A word on the IC50: it is the concentration that gives 50% inhibition. With `COc1ccc([C@H](CC(=O)O)N2CCn3cc(CCC4CCc5cccnc5N4)cc3C2=O)cc1F` (mixture of isomers) [Example 2, (3S)-3-(3-Fluoro-4-methoxyphenyl)-3-(1-oxo-7-(2-(1,2,3,4-tetrahydro-1,8-naphthyridin-2-yl)ethyl)-3,4-dihydropyrrolo[1,2-a]pyrazin-2(1H)-yl)propanoic acid], the IC50 is 0.51 nM.

With `COc1ccc([C@H](CC(=O)O)N2CCn3cc(CCC4CCc5cccnc5N4)cc3C2=O)cn1` (mixture of isomers) [Example 9], the IC50 is 0.6 nM. Next, `COc1ccc([C@H](CC(=O)O)N2CCn3cc(CCC4CCc5cccnc5N4)cc3C2=O)cn1` (single isomer, unassigned) [Example 11]: 2.3 nM. Next, `COc1ccc([C@H](CC(=O)O)N2CCn3cc(CCC4CCc5cccnc5N4)cc3C2=O)cn1` (single isomer, unassigned) [Example 12]: 3.2 nM. As to `COc1ccc([C@H](CC(=O)O)N2CCn3cc(CCc4ccc5c(n4)NCCC5)cc3C2=O)cc1F` [Example 1, (S)-3-(3-Fluoro-4-methoxyphenyl)-3-(1-oxo-7-(2-(5,6,7,8-tetrahydro-1,8-naphthyridin-2-yl)ethyl)-3,4-dihydropyrrolo[1,2-a]pyrazin-2(1H)-yl)propanoic acid], the 50% inhibitory concentration (IC50) came out at 3.2 nM. On to `COc1ccc([C@H](CC(=O)O)N2CCn3cc(CCc4ccc5c(n4)NCCC5)cc3C2=O)cn1` [Example 3, (S)-3-(6-Methoxypyridin-3-yl)-3-(1-oxo-7-(2-(5,6,7,8-tetrahydro-1,8-naphthyridin-2-yl)ethyl)-3,4-dihydropyrrolo[1,2-a]pyrazin-2(1H)-yl)propanoic acid], for which the IC50 was determined as 2.4 nM. As to `COc1ccc([C@@H](CC(=O)O)N2CCn3cc(CCc4ccc5c(n4)NCCC5)cc3C2=O)cc1F` [Example 4], the concentration for half-maximal inhibition (IC50) turned out to be 80 nM. Next, `CC(C)(C)c1cc(Br)cc([C@H](CC(=O)O)N2CCn3cc(CCc4ccc5c(n4)NCCC5)cc3C2=O)c1` [Example 5]: 0.59 nM; `O=C(O)C[C@@H](c1cc(Cl)cc(Cl)c1)N1CCn2cc(CCc3ccc4c(n3)NCCC4)cc2C1=O` [Example 6]: 0.98 nM; `COc1ccc([C@H](CC(=O)O)N2CCn3c(cc(CCc4ccc5c(n4)NCCC5)c3C)C2=O)cc1F` [Example 7]: 69 nM. As to `Cc1cc(C)c(S(=O)(=O)N[C@@H](CN2CCn3cc(CCc4ccc5c(n4)NCCC5)cc3C2=O)C(=O)O)c(C)c1` [Example 8], the half-maximal inhibitory concentration (IC50) came to 25 nM. The same measure for `COc1ccc([C@H](CC(=O)O)N2CCn3cc(C(Cc4ccc5c(n4)NCCC5)Cc4ccc5c(n4)NCCC5)cc3C2=O)cc1F` [Example 10]: 1.3 nM; for `Cc1ncc(C(CC(=O)O)N2CCn3cc(CCc4ccc5c(n4)NCCC5)cc3C2=O)cn1` (stereo not shown) [Example 13]: 7.2 nM. As to `O=C(O)CC(c1cncnc1)N1CCn2cc(CCc3ccc4c(n3)NCCC4)cc2C1=O` (stereo not shown) [Example 15], the IC50 was found to be 23 nM. With `O=C(O)C[C@@H](c1cnc2ccccc2c1)N1CCn2cc(CCc3ccc4c(n3)NCCC4)cc2C1=O` [Example 16], the IC50 was 1.8 nM. The same measure for `O=C(O)C[C@@H](c1ccc2c(c1)OCC2)N1CCn2cc(CCc3ccc4c(n3)NCCC4)cc2C1=O` [Example 17]: 2.6 nM.

As for `O=C(O)CC(c1cnc2ccccc2n1)N1CCn2cc(CCc3ccc4c(n3)NCCC4)cc2C1=O` (stereo not shown) [Example 18], the half-maximal inhibitory concentration (IC50) stood at 140 nM. For the compound `O=C(O)C[C@@H](c1cnc2ccccc2c1)N1CCn2cc(CCCc3ccc4c(n3)NCCC4)cc2C1=O` [Example 19], the IC50 turned out to be 6.5 nM.

With `COc1ncc([C@H](CC(=O)O)N2CCn3cc(CCCc4ccc5c(n4)NCCC5)cc3C2=O)cn1` [Example 20], the IC50 was 3.4 nM. Next, `Cc1ncc([C@H](CC(=O)O)N2CCn3cc(CCCc4ccc5c(n4)NCCC5)cc3C2=O)cn1` [Example 21]: 5.6 nM; `CC(C)COc1ccc([C@H](CC(=O)O)N2CCn3cc(CCc4ccc5c(n4)NCCC5)cc3C2=O)cn1` [Example 22, (S)-3-(6-Isobutoxypyridin-3-yl)-3-(1-oxo-7-(2-(5,6,7,8-tetrahydro-1,8-naphthyridin-2-yl)ethyl)-3,4-dihydropyrrolo[1,2-a]pyrazin-2(1H)-yl)propanoic acid]: 1.6 nM; `CCOc1ccc([C@H](CC(=O)O)N2CCn3cc(CCc4ccc5c(n4)NCCC5)cc3C2=O)cn1` [Example 23, (S)-3-(6-Ethoxypyridin-3-yl)-3-(1-oxo-7-(2-(5,6,7,8-tetrahydro-1,8-naphthyridin-2-yl)ethyl)-3,4-dihydropyrrolo[1,2-a]pyrazin-2(1H)-yl)propanoic acid]: 1.6 nM. Next, `O=C(O)C[C@@H](c1ccc(OCC2CC2)nc1)N1CCn2cc(CCc3ccc4c(n3)NCCC4)cc2C1=O` [Example 24, (S)-3-(6-(Cyclopropylmethoxy)pyridin-3-yl)-3-(1-oxo-7-(2-(5,6,7,8-tetrahydro-1,8-naphthyridin-2-yl)ethyl)-3,4-dihydropyrrolo[1,2-a]pyrazin-2(1H)-yl)propanoic acid]: 1.6 nM; `O=C(N[C@@H](CN1CCn2cc(CCc3ccc4c(n3)NCCC4)cc2C1=O)C(=O)O)OCc1ccccc1` [Example 25, (S)-2-(((Benzyloxy)carbonyl)amino)-3-(1-oxo-7-(2-(5,6,7,8-tetrahydro-1,8-naphthyridin-2-yl)ethyl)-3,4-dihydropyrrolo[1,2-a]pyrazin-2(1H)-yl)propanoic acid]: 4.6 nM. Take `COc1ccc([C@H](CC(=O)O)N2CCn3c(cc(CCc4ccc5c(n4)NCCC5)c3I)C2=O)cc1F` [Example 26, (S)-3-(3-Fluoro-4-methoxyphenyl)-3-(6-iodo-1-oxo-7-(2-(5,6,7,8-tetrahydro-1,8-naphthyridin-2-yl)ethyl)-3,4-dihydropyrrolo[1,2-a]pyrazin-2(1H)-yl)propanoic acid]: the IC50 was 53 nM. The same measure for `O=C(O)C[C@@H](c1ccc(O)c(F)c1)N1CCn2cc(CCc3ccc4c(n3)NCCC4)cc2C1=O` [Example 27, (S)-3-(3-Fluoro-4-hydroxyphenyl)-3-(1-oxo-7-(2-(5,6,7,8-tetrahydro-1,8-naphthyridin-2-yl)ethyl)-3,4-dihydropyrrolo[1,2-a]pyrazin-2(1H)-yl)propanoic acid]: 4.8 nM.

As to `COc1ccc([C@H](CC(=O)O)N2CCn3cc(-c4ccc5c(n4)NCCC5)cc3C2=O)cc1F` [Example 28, (S)-3-(3-Fluoro-4-methoxyphenyl)-3-(1-oxo-7-(5,6,7,8-tetrahydro-1,8-naphthyridin-2-yl)-3,4-dihydropyrrolo[1,2-a]pyrazin-2(1H)-yl)propanoic acid], the half-inhibitory concentration (IC50) is 340 nM. Next, `COc1ccc([C@H](CC(=O)O)N2CCn3cc(Cc4ccc5c(n4)NCCC5)cc3C2=O)cc1F` [Example 29, (S)-3-(3-Fluoro-4-methoxyphenyl)-3-(1-oxo-7-((5,6,7,8-tetrahydro-1,8-naphthyridin-2-yl)methyl)-3,4-dihydropyrrolo[1,2-a]pyrazin-2(1H)-yl)propanoic acid]: 0.73 nM; `COc1ccc([C@H](CC(=O)O)N2CCn3cc(CCCc4ccc5c(n4)NCCC5)cc3C2=O)cn1` [Example 30, (S)-3-(6-Methoxypyridin-3-yl)-3-(1-oxo-7-(3-(5,6,7,8-tetrahydro-1,8-naphthyridin-2-yl)propyl)-3,4-dihydropyrrolo[1,2-a]pyrazin-2(1H)-yl)propanoic acid]: 1.1 nM; `COc1ccc([C@H](CC(=O)O)N2CCn3cc(CCCCc4ccc5c(n4)NCCC5)cc3C2=O)cc1F` [Example 31, (S)-3-(3-Fluoro-4-methoxyphenyl)-3-(1-oxo-7-(4-(5,6,7,8-tetrahydro-1,8-naphthyridin-2-yl)butyl)-3,4-dihydropyrrolo[1,2-a]pyrazin-2(1H)-yl)propanoic acid]: 12 nM.

With “(S)-3-(3-Fluoro-4-methoxyphenyl)-3-(1-oxo-7-(4-(5,6,7,8-tetrahydro-1,8-naphthyridin-2-yl)butyl)-3,4-dihydropyrrolo[1,2-a]pyrazin-2(1H)-yl)propanoic acid, TFA [Example 32]”, the half-inhibitory concentration (IC50) came out at 410 nM.
